Each block holds one molecule with its values, some of them ahead of it.
Key:
[1] = tested on: animal cells; conditions: cited from earlier work
[2] = DPPH radical scavenging activity test (Test method 1.2); type: biochemical; conditions: Table 7
Procedure: Antioxidative activities were evaluated using an ethanol solution of diphenyl-p-picrylhydradil (DPPH), which is a stable radical. 1200 μl of ethanol and 400 μl of a specimen (adjusted to any concentration) were mixed with 1600 μl of a 250 mM acetate buffer (pH=5.5), followed by preincubation at 30° C. for 5 minutes. 800 μl of a 500 μM DPPH/ethanol solution was added to the solution and mixed therewith, and the resultant was then allowed to stand at 30° C. for 30 minutes. Absorbance was measured at 517 nm. A similar procedure was performed also for α-tocopherol and then the result was used as a positive control. The control used herein was prepared by performing a similar procedure using a solvent instead of a sample solution. Radical scavenging ratio was calculated by the following equation using the thus measured absorbances.
Scavenging ratio (%)=(1−[absorbance of sample]/[absorbance of control])×100
The above measurement for finding scavenging ratios was performed by varying stepwise the concentration of a sample in a solution. The concentration of a sample solution leading to a 50% DPPH radical scavenging ratio was found and designated the concentration required for scavenging 50% of the DPPH radicals. Thus, it can be said that the lower the numerical value, the higher the radical scavenging ability.

[3] = Anti-oxidation activity (rhodan-iron method) using linoleic acid, suppression of auto-oxidation; type: biochemical; conditions: for Absorbance, auto-oxidation of linoleic acid: specimen 0.02% (W/W)
Procedure: Linoleic acid is unsaturated fatty acid that is contained richly also in human body. The unsaturated fatty acid is characterized by being auto-oxidized when it is allowed to stand, so as to be lipid peroxide. In this experiment, linoleic acid is mixed with a sample, the mixture is allowed to stand at 40° C., and then antioxidative activities are evaluated based on increases in the amounts of lipid oxides purified from linoleic acid. […] The resulting mixture was put into a brown screw cap bottle, so that 10 ml of a reaction solution was prepared. When a specimen was a water-insoluble component, the specimen was dissolved in the above 99.5% ethanol, so that a reaction solution was prepared. When a specimen was a water-soluble component, the specimen was dissolved in the above distilled water, so that a reaction solution was prepared. In addition, in this test method, the term “specimen concentration” indicates a specimen concentration in 2 ml of 99.5% ethanol or 2 ml of distilled water. Therefore, the final concentration of each specimen in each reaction solution was one fifth of the predetermined concentration. Furthermore, regarding specimens positive for antioxidative activities, similar procedures were performed for BHA so that it is contained in appropriate amounts in reaction solutions. Positive control specimens were thus prepared. A control used herein was prepared by adding 2 ml of 99.5% ethanol and 2 ml of distilled water alone to the reaction solution. Such reaction solution stored in the dark at 40° C. was used for the main test and such reaction solution stored at 4° C. was used for a blank test. Test substances were sampled with time and then measured as described below. Tests were conducted for 2 or more weeks. 0.1 ml of 2×10^2M ferrous chloride (3.5% hydrochloric acid solution) was added to the mixture of 0.1 ml of a test substance, 9.7 ml of 75% ethanol, and 0.1 ml of 30% ammonium rhodanate aqueous solution. At precisely 3 minutes after addition, absorbance was measured at 500 nm. Absorbance was similarly measured in a blank test: Δ absorbance=[absorbance in main test]−[absorbance in blank test]. The higher the absorbance, the higher the amount of oxidized lipids. […] Furthermore, when oxidation of a sample is initiated, the absorbance increases. After the absorbance reaches a peak, the absorbance decreases as the amount of a sample to be oxidized decreases. It can be said that the sooner the absorbance reaches a peak, the weaker the anti-oxidation activity. Furthermore, anti-oxidation activities of the samples were compared in terms of oxidation ratio (%). Oxidation ratio (%) was obtained by the following formula using the oxidation (absorbance) of the control as 100%. Oxidation ratio (%)=([Δ absorbance of sample]/[Δ absorbance of control])×100 [Formula 1] It can be said that the higher the oxidation ratio (%), the lower the anti-oxidation activity.

[4] = tested on: tyrosinase; assay: Effect of inhibiting tyrosinase (skin-whitening activity); type: biochemical, mushroom
Procedure: A test concerning activity of inhibiting tyrosinase, which is an enzyme that generates a melanin pigment, was conducted by the following procedure. • (1) *4 mL of an L-DOPA aqueous solution, **4 mL each of samples diluted at different concentrations, and 2 mL of a 0.2 M phosphate buffer (pH 6.8) were mixed. The mixture was heated in a thermostatic bath at 37° C. […] Changes in absorbance were automatically measured for over 20 seconds from the start to the end at intervals of 0.1 second. The rise velocity of absorbance between 4 seconds and 10 seconds after the start of measurement was calculated. *Tyrosinase solution: Solution obtained by dissolving tyrosinase (SIGMA) derived from a mushroom in a 0.2 M phosphate buffer (pH 6.8) at a concentration of 300 units/mL and then conducting filtering using a 0.2 μm filter • (3) To obtain a blank value, measurement was performed using a 0.2 M phosphate buffer instead of a sample and then tyrosinase-inhibiting activity was calculated by the equation below. Furthermore, a substance that could not be dissolved in a phosphate buffer was dissolved in dimethyl sulfoxide (DMSO), diluted with a phosphate buffer, and then measured. […]
Tyrosinase activity inhibition ratio (%)=100−((absorbance rise velocity of sample)/(absorbance rise velocity of blank))×100

[5] = tested on: animal cells; conditions: animal cell test; cited from earlier work
[6] = tested on: brown guinea pigs; assay: Skin-whitening test: suppression of pigmentation after UV irradiation; type: in vivo; conditions: oral, dose of ascorbic acid 300 mg/kg animal weight/day, 42 days; UVB on days 0, 2, 4; observed days 7 to 42
Procedure: The effect of suppressing pigmentation after UV irradiation was examined using brown guinea pigs (SPF). The brown guinea pigs are of an animal species that undergoes pigmentation because of UV irradiation in a manner similar to humans and of a line that has been clearly maintained. Six guinea pigs were used for each group in this test. To promote pigmentation, UV (UVB) irradiation was performed from a distance of 40 cm using five SE lamps (wavelength between 250 nm and 350 nm, […] Corporation) installed in an UV irradiation apparatus (Y-798-II, Orion Electric Co., Ltd.). […] This time was designated the time for UV irradiation in this test. Each irradiation site was a 2 cm×2 cm square area located on either the left or right across the midline of the back of a guinea pig that had been sheared using electric clippers and then shaved using an electric shaver. […] Pigmentation was measured as follows. Before the initial administration (before irradiation) on the day of the initiation of administration and on days 7, 14, 21, 28, 35, and 42 after initial administration, L value (lightness) of irradiated sites were measured using a colorimeter (CR-300, Minolta Co., Ltd.) and then the ΔL value (L value on the day of observation-L value before irradiation) was found. […]

[7] = Experiment 1, 1 day of storage at 40° C.
[8] = Experiment 1, 4 days of storage at 40° C.
[9] = Experiment 1, 5 days of storage at 40° C.
[10] = Experiment 1, 8 days of storage at 40° C.
[11] = Experiment 1, 11 days of storage at 40° C.
[12] = Experiment 1, 15 days of storage at 40° C.

Molecule: O=C[C@H](O)[C@@H](O)[C@@H](O)[C@H](O)C(=O)O [galacturonic acid]
Effect of suppressing melanin pigment generation [1]: has not been confirmed

Molecule: (±)-α-Tocopherol
50% radical scavenging activity concentration [2]: 127 ppm
Absorbance, auto-oxidation of linoleic acid [3, 7]: 0.0195
Absorbance, auto-oxidation of linoleic acid [3, 8]: 0.0827
Absorbance, auto-oxidation of linoleic acid [3, 9]: 0.1014
Absorbance, auto-oxidation of linoleic acid [3, 10]: 0.1326
Absorbance, auto-oxidation of linoleic acid [3, 11]: 0.1551
Absorbance, auto-oxidation of linoleic acid [3, 12]: 0.1796

Molecule: 3(2)-t-Butyl-4-hydroxyanisole [BHA]
Absorbance, auto-oxidation of linoleic acid [3, 7]: 0.0000
Absorbance, auto-oxidation of linoleic acid [3, 8]: 0.0105
Absorbance, auto-oxidation of linoleic acid [3, 9]: 0.0111
Absorbance, auto-oxidation of linoleic acid [3, 10]: 0.0313
Absorbance, auto-oxidation of linoleic acid [3, 11]: 0.0559
Absorbance, auto-oxidation of linoleic acid [3, 12]: 0.0752
Absorbance, auto-oxidation of linoleic acid ([3]; Experiment 2, 1 day of storage at 40° C.): 0.0001
Absorbance, auto-oxidation of linoleic acid ([3]; Experiment 2, 4 days of storage at 40° C.): 0.0088
Absorbance, auto-oxidation of linoleic acid ([3]; Experiment 2, 5 days of storage at 40° C.): 0.0121
Absorbance, auto-oxidation of linoleic acid ([3]; Experiment 2, 8 days of storage at 40° C.): 0.0269
Absorbance, auto-oxidation of linoleic acid ([3]; Experiment 2, 14 days of storage at 40° C.): 0.0609
Absorbance, auto-oxidation of linoleic acid ([3]; Experiment 2, 18 days of storage at 40° C.): 0.0866

Tyrosinase-inhibiting activity ([4]; L-DOPA substrate, 37° C., sample concentration not given): 3.1%
Molecule: OCC1OC2O[C@@H]3[C@@H](c4ccc(O)c(O)c4)Oc4cc(O)cc(O)c4[C@@H]3OC2C(O)C1O (stereo partly shown) [Aceronidin]
50% radical scavenging activity concentration [2]: 80 ppm
skin-whitening effect (effect of inhibiting tyrosinase), in words [4]: almost no skin-whitening effect (effect of inhibiting tyrosinase)

Molecule: oligogalacturonic acid
Effect of suppressing melanin production [5]: exerted an effect of suppressing melanin production

Molecule: O=C1O[C@H]([C@@H](O)CO)C(O)=C1O [vitamin C, ascorbic acid]
ΔL value of UV-irradiated skin (pigmentation), FIG. 21, in words [6]: measurement values were almost the same
Antioxidative activities for lipids (FIG. 15), in words ([3]; specimen concentration 0.02% (W/W)): no antioxidative activities at all
Antioxidative activities for lipids (FIG. 15), in words ([3]; specimen concentration 0.04% (W/W)): no antioxidative activities at all

Molecule: polygalacturonic acid
Effect of suppressing melanin pigment generation [1]: has not been confirmed
